# Patent US9980486B2, “Herbicidal quinolines” (Syngenta Participations AG, priority 2014, dated 2018)
# System: Setaria faberi (SETFA)
# Assay: Experiment B1 glasshouse herbicide test, pre- and post-emergence, percentage damage
# Type: in vivo
# Details: POST Application (post-emergence, after 8 days cultivation), 1000 g/h, evaluated after 13 days
# Experimental: (§1) Seeds of a variety of test species are sown in standard soil in pots (Lolium perenne (LOLPE), Solanum nigrum (SOLNI), Amaranthus retoflexus (AMARE), Setaria faberi (SETFA), Echinochloa crus-galli (ECHCG), Ipomoea hederacea (IPOHE)). After cultivation for one day (pre-emergence) or after 8 days cultivation (post-emergence) under controlled conditions in a glasshouse (at 24/16° C., day/night; 14 hours light; 65% humidity), the plants are sprayed with an aqueous spray solution derived from the formulation of the technical active ingredient in acetone/water (50:50) solution containing 0.5% Tween 20 (polyoxyethelyene sorbitan monolaurate, CAS RN 9005-64-5). […] The test plants are then grown in a glasshouse under controlled conditions in a glasshouse (at 24/16° C., day/night; 14 hours light; 65% humidity) and watered twice daily. After 13 days for pre and post-emergence, the test is evaluated for the percentage damage caused to the plant. The biological activities are shown in the following table on a five point scale (5=80-100%; 4=60-79%; 3=40-59%; 2=20-39%; 1=0-19%).
row,SMILES,"percentage damage caused to the plant, five point scale, SETFA"
1,O=C(Nc1nnnn1-c1ccccc1)c1cc2cccnc2c(-c2ccccc2)c1C(F)(F)F [Compound 1.033],2 (2=20-39%)
2,COc1ccc(-c2c(C)c(C(=O)Nc3nnnn3C)cc3cccnc23)cc1 [Compound 1.034],5 (5=80-100%)

# Same assay, conditions: PRE Application (pre-emergence, after cultivation for one day), 1000 g/h, evaluated after 13 days
row,SMILES,"percentage damage caused to the plant, five point scale, SETFA"
1,O=C(Nc1nnnn1-c1ccccc1)c1cc2cccnc2c(-c2ccccc2)c1C(F)(F)F [Compound 1.033],1 (1=0-19%)
2,COc1ccc(-c2c(C)c(C(=O)Nc3nnnn3C)cc3cccnc23)cc1 [Compound 1.034],5 (5=80-100%)

# System: Amaranthus retoflexus (AMARE)
# Assay: as above
# Type: in vivo
# Details: POST Application (post-emergence, after 8 days cultivation), 1000 g/h, evaluated after 13 days
# Experimental: as §1
row,SMILES,"percentage damage caused to the plant, five point scale, AMARE"
1,O=C(Nc1nnnn1-c1ccccc1)c1cc2cccnc2c(-c2ccccc2)c1C(F)(F)F [Compound 1.033],5 (5=80-100%)
2,COc1ccc(-c2c(C)c(C(=O)Nc3nnnn3C)cc3cccnc23)cc1 [Compound 1.034],5 (5=80-100%)

# Same assay, conditions: PRE Application (pre-emergence, after cultivation for one day), 1000 g/h, evaluated after 13 days
row,SMILES,"percentage damage caused to the plant, five point scale, AMARE"
1,O=C(Nc1nnnn1-c1ccccc1)c1cc2cccnc2c(-c2ccccc2)c1C(F)(F)F [Compound 1.033],5 (5=80-100%)
2,COc1ccc(-c2c(C)c(C(=O)Nc3nnnn3C)cc3cccnc23)cc1 [Compound 1.034],5 (5=80-100%)

# System: Echinochloa crus-galli (ECHCG)
# Assay: as above
# Type: in vivo
# Details: POST Application (post-emergence, after 8 days cultivation), 1000 g/h, evaluated after 13 days
# Experimental: as §1
row,SMILES,"percentage damage caused to the plant, five point scale, ECHCG"
1,O=C(Nc1nnnn1-c1ccccc1)c1cc2cccnc2c(-c2ccccc2)c1C(F)(F)F [Compound 1.033],2 (2=20-39%)
2,COc1ccc(-c2c(C)c(C(=O)Nc3nnnn3C)cc3cccnc23)cc1 [Compound 1.034],5 (5=80-100%)

# Same assay, conditions: PRE Application (pre-emergence, after cultivation for one day), 1000 g/h, evaluated after 13 days
row,SMILES,"percentage damage caused to the plant, five point scale, ECHCG"
1,O=C(Nc1nnnn1-c1ccccc1)c1cc2cccnc2c(-c2ccccc2)c1C(F)(F)F [Compound 1.033],1 (1=0-19%)
2,COc1ccc(-c2c(C)c(C(=O)Nc3nnnn3C)cc3cccnc23)cc1 [Compound 1.034],5 (5=80-100%)

# System: Solanum nigrum (SOLNI)
# Assay: as above
# Type: in vivo
# Details: POST Application (post-emergence, after 8 days cultivation), 1000 g/h, evaluated after 13 days
# Experimental: as §1
row,SMILES,"percentage damage caused to the plant, five point scale, SOLNI"
1,O=C(Nc1nnnn1-c1ccccc1)c1cc2cccnc2c(-c2ccccc2)c1C(F)(F)F [Compound 1.033],5 (5=80-100%)
2,COc1ccc(-c2c(C)c(C(=O)Nc3nnnn3C)cc3cccnc23)cc1 [Compound 1.034],5 (5=80-100%)

# Same assay, conditions: PRE Application (pre-emergence, after cultivation for one day), 1000 g/h, evaluated after 13 days
row,SMILES,"percentage damage caused to the plant, five point scale, SOLNI"
1,O=C(Nc1nnnn1-c1ccccc1)c1cc2cccnc2c(-c2ccccc2)c1C(F)(F)F [Compound 1.033],4 (4=60-79%)
2,COc1ccc(-c2c(C)c(C(=O)Nc3nnnn3C)cc3cccnc23)cc1 [Compound 1.034],5 (5=80-100%)

# System: Ipomoea hederacea (IPOHE)
# Assay: as above
# Type: in vivo
# Details: POST Application (post-emergence, after 8 days cultivation), 1000 g/h, evaluated after 13 days
# Experimental: as §1
row,SMILES,"percentage damage caused to the plant, five point scale, IPOHE"
1,O=C(Nc1nnnn1-c1ccccc1)c1cc2cccnc2c(-c2ccccc2)c1C(F)(F)F [Compound 1.033],5 (5=80-100%)
2,COc1ccc(-c2c(C)c(C(=O)Nc3nnnn3C)cc3cccnc23)cc1 [Compound 1.034],5 (5=80-100%)

# Same assay, conditions: PRE Application (pre-emergence, after cultivation for one day), 1000 g/h, evaluated after 13 days
row,SMILES,"percentage damage caused to the plant, five point scale, IPOHE"
1,O=C(Nc1nnnn1-c1ccccc1)c1cc2cccnc2c(-c2ccccc2)c1C(F)(F)F [Compound 1.033],3 (3=40-59%)
2,COc1ccc(-c2c(C)c(C(=O)Nc3nnnn3C)cc3cccnc23)cc1 [Compound 1.034],5 (5=80-100%)

# System: Lolium perenne (LOLPE)
# Assay: as above
# Type: in vivo
# Details: POST Application (post-emergence, after 8 days cultivation), 1000 g/h, evaluated after 13 days
# Experimental: as §1
row,SMILES,"percentage damage caused to the plant, five point scale, LOLPE"
1,O=C(Nc1nnnn1-c1ccccc1)c1cc2cccnc2c(-c2ccccc2)c1C(F)(F)F [Compound 1.033],1 (1=0-19%)
2,COc1ccc(-c2c(C)c(C(=O)Nc3nnnn3C)cc3cccnc23)cc1 [Compound 1.034],4 (4=60-79%)

# Same assay, conditions: PRE Application (pre-emergence, after cultivation for one day), 1000 g/h, evaluated after 13 days
row,SMILES,"percentage damage caused to the plant, five point scale, LOLPE"
1,O=C(Nc1nnnn1-c1ccccc1)c1cc2cccnc2c(-c2ccccc2)c1C(F)(F)F [Compound 1.033],1 (1=0-19%)
2,COc1ccc(-c2c(C)c(C(=O)Nc3nnnn3C)cc3cccnc23)cc1 [Compound 1.034],5 (5=80-100%)
